Data published in patent publication US5459158A, “Pharmaceutical compositions of indazoles and methods of use thereof” (priority 1992, dated 1995).
Where two headings read alike, the source gives them in different places.

What was measured:
[1] = molecular target: T1, rat cerebellar nitric oxide synthase (NOS) (Rattus norvegicus, UniProt P29476); experiment: inhibition of rat cerebellar nitric oxide synthase (NOS); assay type: biochemical
T1 construct: from tissue
Procedure: Nitric oxide synthase (NOS) activity was determined in vitro by the method of Dwyer et al., Biochem. Biophys. Res. Commun. 1991, 176, 1136-1141. Mice (male, LACA, 28-32 g) were killed by cervical dislocation. Cerebella were removed, homogenized (1-10 w/v in 20 mM Tris buffer containing 2 mM EDTA, pH. 7.4) and aliquots (25 μl) incubated (37° C.) with L-arginine (120 nM) containing 0.5 μCi [^3 H]-arginine (specific activity 62 Ci mmol^-1), NADPH (0.5 mM) and CaCl2 (0.75 mM). […] Final incubation volume was 105 μl. After 15 minutes the reaction was stopped by addition of 3 ml HEPES buffer (20 mM containing 2 mM EDTA, pH 5.5) and the [^3 H]-citrulline produced was separated by cation exchange chromatography on 0.5 ml columns of Dowex AG50-W8 Na^+ form. [^3 H]-Citrulline was quantitated by liquid scintillation spectroscopy of duplicate 1 ml aliquots of the flow-through.

mice = experiment: anti-nociceptive activity, formalin-induced hindpaw licking assay; assay type: in vivo, mouse; details: for Inhibition of licking (%): 50 mg kg^-1 i.p., late phase
Procedure: Control animals received 10 ml kg^-1 of arachis oil or saline (0.9% w/v NaCl).
The percentage inhibition of formalin-induced licking in the late phase following the administration of 50 mg kg^-1 i.p. of the indazoles is shown in the Table below.

mouse cerebellar NOS [2] = molecular target: T2, mouse cerebellar NOS (Mus musculus, UniProt Q9Z0J4); experiment: inhibition of mouse cerebellar nitric oxide synthase (NOS) activity in vitro; assay type: biochemical; details: for IC50: mouse cerebella homogenate, 15 minutes, 37° C., mean ± s.e. mean, n=6
T2 construct: Cerebella were removed, homogenized; from tissue; host or cells: cerebellum of male LACA mice, crude homogenate

mouse cerebellar NOS [3] = molecular target: T2, mouse cerebellar NOS; experiment: mouse cerebellar NOS activity after i.p. administration (ex vivo); assay type: in vivo; details: n=6, P<0.01
Procedure: Nitric oxide synthase (NOS) activity was determined in vitro by the method of Dwyer et al., Biochem. Biophys. Res. Commun. […] Mice (male, LACA, 28-32 g) were killed by cervical dislocation. […] Final incubation volume was 105 μl. After 15 minutes the reaction was stopped by addition of 3 ml HEPES buffer (20 mM containing 2 mM EDTA, pH 5.5) and the [^3 H]-citrulline produced was separated by cation exchange chromatography on 0.5 ml columns of Dowex AG50-W8 Na^+ form. [^3 H]-Citrulline was quantitated by liquid scintillation spectroscopy of duplicate 1 ml aliquots of the flow-through.
Cerebella were removed, homogenized and NOS activity determined as described above.

[4] = blood pressure (MAP) of urethane-anaesthetized mice; assay type: in vivo, mouse; details: for mean arterial pressure (MAP): n=4
nitric oxide synthase = details: Moore et al., British Journal of Pharmacology, 1991, 102, 198-202; cited from earlier work
[5] = rat cerebella, read-out: IC50 NOS
[6] = ratio of IC50 on mouse cerebellar NOS in vitro

T2 sequence (Q9Z0J4 whole entry): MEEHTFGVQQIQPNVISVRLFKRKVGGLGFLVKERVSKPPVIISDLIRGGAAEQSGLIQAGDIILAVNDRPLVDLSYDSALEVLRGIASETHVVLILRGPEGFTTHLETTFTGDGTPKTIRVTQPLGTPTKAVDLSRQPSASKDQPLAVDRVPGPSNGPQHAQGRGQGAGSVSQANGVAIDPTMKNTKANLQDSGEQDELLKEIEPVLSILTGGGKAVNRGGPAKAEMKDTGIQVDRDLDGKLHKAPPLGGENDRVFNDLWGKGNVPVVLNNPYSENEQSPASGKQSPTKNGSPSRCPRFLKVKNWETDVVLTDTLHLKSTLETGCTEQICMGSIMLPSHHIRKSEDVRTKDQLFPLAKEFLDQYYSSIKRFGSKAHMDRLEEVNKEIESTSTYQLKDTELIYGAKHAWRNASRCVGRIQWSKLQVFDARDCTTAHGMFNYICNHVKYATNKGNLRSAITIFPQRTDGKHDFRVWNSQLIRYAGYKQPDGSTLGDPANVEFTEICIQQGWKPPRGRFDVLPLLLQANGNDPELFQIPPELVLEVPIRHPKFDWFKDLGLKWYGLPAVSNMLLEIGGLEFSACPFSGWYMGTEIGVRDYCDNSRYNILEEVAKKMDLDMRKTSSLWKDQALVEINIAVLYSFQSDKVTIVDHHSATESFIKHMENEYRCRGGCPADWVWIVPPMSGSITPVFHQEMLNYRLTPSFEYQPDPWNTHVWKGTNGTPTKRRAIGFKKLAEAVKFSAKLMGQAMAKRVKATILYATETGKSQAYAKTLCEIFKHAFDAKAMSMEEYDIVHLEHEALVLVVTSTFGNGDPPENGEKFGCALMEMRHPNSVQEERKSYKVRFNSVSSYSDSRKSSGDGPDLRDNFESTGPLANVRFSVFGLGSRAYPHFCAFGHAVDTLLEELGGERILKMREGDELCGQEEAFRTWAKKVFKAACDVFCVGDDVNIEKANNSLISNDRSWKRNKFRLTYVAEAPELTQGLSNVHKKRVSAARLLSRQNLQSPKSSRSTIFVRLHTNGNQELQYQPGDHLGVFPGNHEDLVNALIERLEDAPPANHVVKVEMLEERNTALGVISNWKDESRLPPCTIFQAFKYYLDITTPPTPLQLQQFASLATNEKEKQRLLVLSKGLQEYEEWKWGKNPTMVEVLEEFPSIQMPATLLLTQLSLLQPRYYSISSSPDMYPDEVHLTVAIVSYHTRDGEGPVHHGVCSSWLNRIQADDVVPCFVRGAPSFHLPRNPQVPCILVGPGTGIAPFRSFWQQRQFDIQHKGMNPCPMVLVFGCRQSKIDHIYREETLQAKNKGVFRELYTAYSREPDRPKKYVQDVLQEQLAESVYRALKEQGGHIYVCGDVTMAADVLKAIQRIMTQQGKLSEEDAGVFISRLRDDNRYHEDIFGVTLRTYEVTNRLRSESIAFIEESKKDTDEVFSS

## O=[N+]([O-])c1ccc2[nH]nc(Cl)c2c1 [3-chloro-5-nitroindazole]
[1]; [5]
  IC50: 177 µM

## Clc1n[nH]c2ccccc12 [3-chloroindazole]
[1]; [5]
  IC50: 100 µM

## O=[N+]([O-])c1ccc2[nH]ncc2c1 [5-nitroindazole]
[1]; [5]
  IC50: 56 µM

## O=[N+]([O-])c1ccc2cn[nH]c2c1 [6-nitroindazole]
mice
  Inhibition of licking (%): 67.0 ± 12.0%
[1]; [5]
  IC50: 32 µM

## O=[N+]([O-])c1cccc2cn[nH]c12 [7-nitroindazole]
Mouse cerebellar NOS [2]
  IC50: 0.47 ± 0.01 µM
Mouse cerebellar NOS [2]; [6]
  times more potent than L-NAME: 1.8 times
  times more potent than L-NMMA: 5 times
Mouse cerebellar NOS [3]; 25 mg kg^-1, i.p., 15 minutes thereafter
  decrease of mouse cerebellar NOS activity: over 55%
Mouse cerebellar NOS [3]; 25 mg kg^-1, i.p., 15 minutes, cf 9.1±0.26 arachis oil-injected controls
  mouse cerebellar NOS activity: 3.9±0.06 nmol citrulline mg^-1 protein 15 min^-1
mice
  Inhibition of licking (%): 100%
mice; 10, 25 and 50 mg kg^-1 i.p., early phase (0-5 minutes)
  early phase response of formalin-induced hindpaw licking (in words): without influencing the early phase response
mice; 10, 25 and 50 mg kg^-1 i.p., late phase (15-30 minutes)
  inhibition of late phase formalin-induced hindpaw licking (in words): dose-related inhibition of late phase formalin-induced hindpaw licking
mice; i.p., mice
  ED50 for the anti-nociceptive effect: 26 mg/kg
mice; i.p., mice, converted from 26 mg kg^-1
  ED50 for the anti-nociceptive effect (equivalent): 159.5 µmol/kg
[4]; 25 mg kg^-1 i.p., cf 51.6±4.4 before administration
  mean arterial pressure (MAP): 47.4±5.1 mmHg
[4]; 80 mg kg^-1 i.p., cf 49.5±2.9 before administration
  mean arterial pressure (MAP): 43.9±5.3 mmHg
[4]; 25 and 80 mg kg^-1 i.p., over 45 minutes
  mean arterial pressure (MAP), change in words: did not increase mean arterial pressure

## COC(=O)[C@@H](N)CCCNC(=N)N[N+](=O)[O-] [L-NAME, L-N^G -nitroarginine methyl ester, reference compound]
Mouse cerebellar NOS [2]
  IC50: 0.87 ± 0.02 µM
Mouse cerebellar NOS [3]; 50 mg kg^-1, i.p., 15 minutes, cf 8.33±0.15 saline-injected controls
  mouse cerebellar NOS activity: 4.46±0.012 pmol citrulline mg^-1 protein 15 min^-1
Mouse cerebellar NOS [3]; mouse, ip, 50 mg kg^-1, i.p., 15 minutes
  inhibition at 50 mg/kg: 46.2 ± 1.6%
Nitric oxide synthase
  block of nitric oxide synthase in brain and peripherally: blocks this enzyme not only in the brain but also peripherally

## CNC(=N)NCCC[C@H](N)C(=O)O [L-NMMA, L-N^G -monomethyl arginine, reference compound]
Mouse cerebellar NOS [2]
  IC50: 2.37 ± 0.03 µM

## c1ccc2[nH]ncc2c1 [indazole]
mice
  Inhibition of licking (%): 83.2 ± 12.2%
[1]
  IC50: 232 µM
